Experimental data as given in PubChem BioAssay (NCI).
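Exposure lasted 48 hours, with cells grown in 96-well plates and compounds tested at five concentrations. GI50 = concentration required for 50% inhibition of growth. At the TGI there is no net growth.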

Assays:
Assay in all cases: NCI tumour cell line growth inhibition, 48 h
ACHN renal = system: ACHN renal
SK-MEL-2 melanoma = system: SK-MEL-2 melanoma
SK-MEL-28 melanoma = system: SK-MEL-28 melanoma
SW-620 colon = system: SW-620 colon
HOP-62 NSCLC = system: HOP-62 NSCLC
OVCAR-5 ovarian = system: OVCAR-5 ovarian
MDA-MB-435 = system: MDA-MB-435
T-47D breast = system: T-47D breast
HS 578T breast = system: HS 578T breast
MCF7 breast = system: MCF7 breast

Row | SMILES | TGI (ACHN renal) [µM] | TGI (SK-MEL-2 melanoma) [µM] | TGI (SK-MEL-28 melanoma) [µM] | TGI (SW-620 colon) [µM] | TGI (HOP-62 NSCLC) [µM] | TGI (OVCAR-5 ovarian) [µM] | TGI (MDA-MB-435) [µM] | TGI (T-47D breast) [µM] | TGI (HS 578T breast) [µM] | TGI (MCF7 breast) [µM] | GI50 (ACHN renal) [nM] | GI50 (MDA-MB-435) [nM] | GI50 (T-47D breast) [nM] | GI50 (SK-MEL-28 melanoma) [nM] | GI50 (SW-620 colon) [nM] | GI50 (HOP-62 NSCLC) [nM] | GI50 (MCF7 breast) [nM] | GI50 (SK-MEL-2 melanoma) [nM] | GI50 (OVCAR-5 ovarian) [nM] | GI50 (HS 578T breast) [nM]
1 | CC(C)NC1CCCCC2c3ccccc3C12O (stereo not drawn) | > 100 | > 100 | > 100 | > 100 | > 100 | – | – | – | – | – | – | – | – | – | – | – | – | – | – | –
2 | CCOc1ccc2c(c1)[n+]([O-])c(-c1ccccc1)c(N)[n+]2[O-] | > 100 | > 100 | > 100 | > 100 | > 100 | > 100 | – | – | – | – | – | – | – | – | – | – | – | – | – | –
3 | COc1cc(OC)c(OC)cc1/C=C/c1ccccn1 | > 10 | > 10 | > 10 | > 10 | > 10 | > 10 | > 10 | > 10 | > 10 | > 10 | – | – | – | – | – | – | – | – | – | –
4 | O=C(c1ccccc1)[C@H]1Nc2ccc(Cl)cc2[C@H]2c3ccccc3O[C@H]21 | 28.7 | 27.3 | 25.8 | 31.2 | 32.5 | 29.5 | – | – | – | – | – | – | – | – | – | – | – | – | – | –
5 | COC1C(OC(=O)/C=C/C=C/C=C/C=C/C(=O)O)CCC2(CO2)C1C1(C)OC1CC=C(C)C (stereo not drawn) | 49 | > 85.3 | > 100 | > 100 | > 100 | > 100 | – | 70.2 | > 100 | > 100 | 373 | 105 | 326 | 442 | 272 | 198 | 172 | – | – | –
6 | CCN(CC)C(=O)c1cccc2c(OC)ccc(OC)c12 | > 100 | > 100 | > 100 | > 100 | > 100 | > 100 | – | – | – | – | – | – | – | – | – | – | – | – | – | –
7 | Cc1cc(C)c2c(c1)CSCc1cc(C)cc(C)c1-2 | > 100 | 43.9 | > 100 | > 100 | 69.8 | > 100 | – | – | – | – | – | – | – | – | – | – | – | – | – | –
8 | CN(N=O)C(=O)NC(CCCCNC(=O)OCc1ccccc1)C(=O)OCc1ccccc1 (stereo not drawn) | 32.3 | 85.5 | 56.1 | > 100 | 79.6 | > 100 | – | – | – | – | – | – | – | – | – | – | – | – | – | –
9 | Cc1cccc(-c2nc(=S)[nH][nH]2)c1 | > 100 | > 100 | > 100 | > 100 | > 100 | > 100 | – | – | – | – | – | – | – | – | – | – | – | – | – | –
10 | CCN(CC)P(=O)(c1ccc2c(c1)OCCOCCOCCOCCO2)N(CC)CC | > 100 | – | > 100 | > 100 | > 100 | – | > 100 | > 100 | > 100 | > 100 | – | – | – | – | – | – | – | – | – | –
11 | CCCN1CCC(Oc2cc(Nc3nc(Nc4cccc(F)c4C(N)=O)c4cc[nH]c4n3)c(OC)cc2Cl)CC1 | 7.99 | 8.32 | 6.09 | 3.57 | 4.36 | 7.27 | 5.32 | 3.12 | 10.6 | 3.97 | 4010 | 1350 | 1320 | 2820 | 785 | 1310 | 907 | 4500 | 3440 | 3730
12 | CC(=O)Oc1ccc2c(c1)O/C(=C\c1ccc(N(C)C)cc1)C2=O | > 100 | – | > 100 | > 100 | > 100 | – | > 100 | > 100 | 60.8 | > 100 | – | – | – | – | – | – | – | – | – | –
13 | COc1ccc(/C=C2\C(=O)N(C(=O)c3ccc(NC(C)=O)cc3)N=C2C)cc1OC | > 100 | > 100 | > 100 | > 100 | > 100 | > 100 | – | – | – | – | – | – | – | – | – | – | – | – | – | –
14 | O=S(=O)(c1ccccc1)N1CCC1c1ccccc1 (stereo not drawn) | > 100 | > 100 | > 100 | > 100 | > 100 | – | – | – | – | – | – | – | – | – | – | – | – | – | – | –
15 | Cc1cnoc1/N=C1\C=C(Nc2oncc2C)C(=O)c2ccccc21 | > 100 | > 100 | > 100 | > 100 | > 100 | > 100 | – | – | – | – | – | – | – | – | – | – | – | – | – | –
16 | [N-]=[N+]=NC1C(Cl)C(=O)NC(=O)N1[C@H]1C[C@H](O)[C@@H](CO)O1 (stereo partly drawn) | > 100 | > 100 | > 100 | > 100 | > 100 | > 100 | – | – | – | – | – | – | – | – | – | – | – | – | – | –
17 | CC1=NC2(C(=O)O)C3(C(=O)O)N=C(C)OC3(C(F)(F)F)C2(C(F)(F)F)O1 (stereo not drawn) | > 100 | > 100 | > 100 | > 100 | > 100 | > 100 | – | – | – | – | – | – | – | – | – | – | – | – | – | –
18 | CN(c1ccccc1)c1nc(=[N+](C)C)ss1 | > 100 | > 100 | > 100 | > 100 | > 100 | > 100 | – | – | – | – | – | – | – | – | – | – | – | – | – | –
19 | NC(=O)N/N=C(\Cc1cc(=O)oc2cc(O)ccc12)C(=O)Nc1ccccc1C(N)=O | > 100 | > 100 | > 100 | > 100 | > 100 | > 100 | > 100 | – | > 100 | > 100 | – | – | – | – | – | – | – | – | – | –
20 | CN(C)C(=C1C(Br)=C(Br)C(Br)=C1Br)N(C)C | > 100 | > 100 | > 100 | > 100 | > 100 | > 100 | – | – | – | – | – | – | – | – | – | – | – | – | – | –
21 | Cc1c2ccccc2c(=O)n2c(-c3ccccn3)cccc12 | > 100 | > 100 | > 100 | > 100 | > 100 | – | – | – | – | – | – | – | – | – | – | – | – | – | – | –
22 | O=S1(=O)[C@H](c2ccccc2)c2c(-c3ccccc3)sc(-c3ccccc3)c2[C@@H]1c1ccccc1 | > 100 | > 100 | > 100 | > 100 | > 100 | > 100 | – | – | – | – | – | – | – | – | – | – | – | – | – | –
23 | COc1cccc2c1C(=O)c1c(O)c3c(c(O)c1C2=O)C[C@@](O)(/C(C)=N/NC(=O)c1cccc([N+](=O)[O-])c1)C[C@@H]3OC1CC(N)C(O)C(C)O1 (stereo partly drawn) | 1.65 | 3.23 | 2.45 | 9.4 | 4.41 | 13.5 | – | 1.26 | 5.5 | 18.5 | 205 | – | 176 | 608 | 156 | 283 | 61.3 | 996 | 919 | 561
24 | CCOc1ccc2c(c1)[n+]([O-])c(C(N)=O)c(N)[n+]2[O-] | > 100 | > 100 | > 100 | > 100 | > 100 | > 100 | – | – | – | – | – | – | – | – | – | – | – | – | – | –
25 | COC(=O)C1=C(C(=O)OC)C23CC4CCC2(C(=O)C1O3)C4(C)C (stereo not drawn) | > 100 | > 100 | > 100 | > 100 | – | > 100 | – | – | – | – | – | – | – | – | – | – | – | – | – | –
26 | CCC(=O)N1C(=S)SC[C@H]1C(=O)OC | > 100 | – | > 100 | > 100 | > 100 | > 100 | – | – | – | – | – | – | – | – | – | – | – | – | – | –
